Data set [1] concerns the target T1, Isocitrate dehydrogenase [NADP] cytoplasmic (Homo sapiens, UniProt O75874, R132H). The data set is described as follows: Inhibition of IDH1 R132H mutant (unknown origin).
Data set [2] has as its target T2, Isocitrate dehydrogenase [NADP] cytoplasmic (Homo sapiens, UniProt O75874, R132C). The data set is described as follows: Inhibition of IDH1 R132C mutant (unknown origin).
The test system of data set [3] is Isocitrate dehydrogenase [NADP] cytoplasmic (Homo sapiens), O75874 [R132H]. The data set is described as follows: Inhibition of recombinant human IDH1 R132H mutant extracted from Escherichia coli BL21 (DE3) cells using alpha-ketoglutarate as substrate at 0.2 uM incubated for 60 mins in presence of NADPH by absorbance based assay relative to control.
Isocitrate dehydrogenase [NADP] cytoplasmic (Homo sapiens), O75874 [R132H], sequence (O75874 whole entry R132H): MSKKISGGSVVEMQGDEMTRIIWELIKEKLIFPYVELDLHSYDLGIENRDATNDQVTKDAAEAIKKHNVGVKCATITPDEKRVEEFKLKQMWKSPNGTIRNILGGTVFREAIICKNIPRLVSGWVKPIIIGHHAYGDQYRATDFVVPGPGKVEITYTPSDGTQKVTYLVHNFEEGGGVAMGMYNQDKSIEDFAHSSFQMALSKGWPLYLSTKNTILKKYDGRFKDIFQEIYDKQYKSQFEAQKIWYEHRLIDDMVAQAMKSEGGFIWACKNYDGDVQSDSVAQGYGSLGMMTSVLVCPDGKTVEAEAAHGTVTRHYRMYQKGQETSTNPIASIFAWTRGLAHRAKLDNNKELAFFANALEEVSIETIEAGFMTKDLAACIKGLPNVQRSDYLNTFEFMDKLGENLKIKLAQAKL
Data set [4] has as its target T2, Isocitrate dehydrogenase [NADP] cytoplasmic. The data set can be described thus: Inhibition of recombinant human IDH1 R132C mutant extracted from Escherichia coli BL21 (DE3) cells using alpha-ketoglutarate as substrate incubated for 60 mins in presence of NADPH by absorbance based assay.
For data set [5], the system named is L02. The data set is described as follows: Cytotoxicity against human L02 cells assessed as inhibition of cell growth at 50 uM. The class given is toxicity, cell-based. Particulars: l02, 50 µM.
Data set [6] concerns the target T1, Isocitrate dehydrogenase [NADP] cytoplasmic. The data set is described as follows: Inhibition of recombinant human IDH1 R132H mutant extracted from Escherichia coli BL21 (DE3) cells using alpha-ketoglutarate as substrate incubated for 60 mins in presence of NADPH by absorbance based assay.
The subject of data set [7] is U-87 MG. The data set is described as follows: Antiproliferative activity against human U-87 MG cells assessed as reduction in cell viability incubated for 72 hrs by MTT assay. The data set is classed as functional, U-87MG ATCC.
Data set [8] deals with Isocitrate dehydrogenase [NADP] cytoplasmic (Homo sapiens, UniProt O75874). The data set can be described thus: Inhibition of recombinant human wildtype IDH1 extracted from Escherichia coli BL21 (DE3) cells using alpha-ketoglutarate as substrate incubated for 60 mins in presence of NADPH by absorbance based assay.
Isocitrate dehydrogenase [NADP] cytoplasmic (Homo sapiens, UniProt O75874), sequence (O75874 whole entry): as the sequence (O75874 whole entry R132H) above, with H132R counted along it
For data set [9], the system named is Isocitrate dehydrogenase [NADP] cytoplasmic (Homo sapiens), O75874 [R132C]. The data set can be described thus: Inhibition of recombinant human IDH1 R132C mutant extracted from Escherichia coli BL21 (DE3) cells using alpha-ketoglutarate as substrate at 0.2 uM incubated for 60 mins in presence of NADPH by absorbance based assay relative to control.
Isocitrate dehydrogenase [NADP] cytoplasmic (Homo sapiens), O75874 [R132C], sequence (O75874 whole entry R132C): as the sequence (O75874 whole entry R132H) above, with H132C counted along it
The subject of data set [10] is Isocitrate dehydrogenase [NADP] cytoplasmic (Homo sapiens), O75874 [R132H]. The data set is described as follows: Inhibition of recombinant human IDH1 R132H mutant extracted from Escherichia coli BL21 (DE3) cells using alpha-ketoglutarate as substrate at 2 uM incubated for 60 mins in presence of NADPH by absorbance based assay relative to control.
The target of data set [11] is T1, Isocitrate dehydrogenase [NADP] cytoplasmic. The data set can be described thus: Inhibition of IDH1 R132H mutant in human U-87 MG cells assessed as reduction in 2-HG level incubated for 48 hrs in presence of NAD+ by resazurin fluorescence dye based Sigma MAK320-1 assay kit analysis. The data set is classed as cell-based.
Data set [12] deals with Isocitrate dehydrogenase [NADP] cytoplasmic (Homo sapiens), O75874 [R132C]. The data set is described as follows: Inhibition of recombinant human IDH1 R132C mutant extracted from Escherichia coli BL21 (DE3) cells using alpha-ketoglutarate as substrate at 2 uM incubated for 60 mins in presence of NADPH by absorbance based assay relative to control.
The target of data set [13] is T2, Isocitrate dehydrogenase [NADP] cytoplasmic. The data set is described as follows: Inhibition of IDH1 R132C mutant in human HT-1080 cells assessed as reduction in 2-HG level incubated for 48 hrs in presence of NAD+ by resazurin fluorescence dye based Sigma MAK320-1 assay kit analysis. The data set is classed as cell-based.
Data set [14] relates to U-87 MG. The data set is described as follows: Antiproliferative activity against human U-87 MG cells harboring IDH1 R132H mutant assessed as reduction in cell viability incubated for 72 hrs by MTT assay. The data set is classed as functional, U-87MG ATCC.

The values that follow come from ChEMBL document CHEMBL5608173, “Discovery of novel natural-product-derived mutant isocitrate dehydrogenases 1 inhibitors: Structure-based virtual screening, biological evaluation and structure-activity relationship study” (Eur J Med Chem, 2024).

pEC50, pIC50: −log10 of the molar value.

T1 sequence (O75874 2-414 R132H limits assumed): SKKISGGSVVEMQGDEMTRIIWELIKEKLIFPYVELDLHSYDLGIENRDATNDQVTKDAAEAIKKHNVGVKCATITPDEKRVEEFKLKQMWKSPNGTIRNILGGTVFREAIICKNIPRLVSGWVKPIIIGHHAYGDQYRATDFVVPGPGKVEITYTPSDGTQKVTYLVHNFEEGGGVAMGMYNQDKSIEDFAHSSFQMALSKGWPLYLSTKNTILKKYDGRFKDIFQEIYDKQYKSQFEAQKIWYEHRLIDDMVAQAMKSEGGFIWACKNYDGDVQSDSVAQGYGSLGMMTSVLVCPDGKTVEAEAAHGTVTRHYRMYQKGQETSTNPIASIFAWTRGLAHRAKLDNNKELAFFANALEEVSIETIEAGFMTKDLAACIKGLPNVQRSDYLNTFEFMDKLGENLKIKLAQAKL
T2 sequence (O75874 2-414 R132C limits assumed): as the sequence (O75874 2-414 R132H limits assumed) above, with H131C counted along it

For the molecule `COc1c(C)cc(NC(=O)c2nn(Cc3ccc(F)cc3)c3c2CN(C(=O)c2ccc[nH]2)C[C@]3(C)C(N)=O)cc1C`, the negative logarithm of the IC50 (pIC50) in [1] was 7.82; in data set [2], 8.06.
Take `COc1ccc(-c2cc(-c3ccc(O)cc3)nc(-c3ncccn3)n2)c(O)c1`: the inhibition in data set [3] was 73.1%; in [9] it was 82%; in data set [10], over 100%; in data set [12] it was 97.5%. Besides, the pIC50 is 7.10 in data set [4], 7.04 in data set [6] and under 4.70 in data set [8]. Besides, the Activity entry in [5] was “Toxic”. For the same molecule, the GC50 in data set [7] was over 20000 nM; in [14], 6800 nM. Moreover, the results for the pEC50 in data set [11] and in data set [13] were 6.58 and 6.55, respectively.
